Structures can show the parent of a compound that is named as a salt.
Target: T1, Tyrosine-protein phosphatase non-receptor type 22 (Homo sapiens, UniProt Q9Y2R2)
T1 sequence (Q9Y2R2 whole entry): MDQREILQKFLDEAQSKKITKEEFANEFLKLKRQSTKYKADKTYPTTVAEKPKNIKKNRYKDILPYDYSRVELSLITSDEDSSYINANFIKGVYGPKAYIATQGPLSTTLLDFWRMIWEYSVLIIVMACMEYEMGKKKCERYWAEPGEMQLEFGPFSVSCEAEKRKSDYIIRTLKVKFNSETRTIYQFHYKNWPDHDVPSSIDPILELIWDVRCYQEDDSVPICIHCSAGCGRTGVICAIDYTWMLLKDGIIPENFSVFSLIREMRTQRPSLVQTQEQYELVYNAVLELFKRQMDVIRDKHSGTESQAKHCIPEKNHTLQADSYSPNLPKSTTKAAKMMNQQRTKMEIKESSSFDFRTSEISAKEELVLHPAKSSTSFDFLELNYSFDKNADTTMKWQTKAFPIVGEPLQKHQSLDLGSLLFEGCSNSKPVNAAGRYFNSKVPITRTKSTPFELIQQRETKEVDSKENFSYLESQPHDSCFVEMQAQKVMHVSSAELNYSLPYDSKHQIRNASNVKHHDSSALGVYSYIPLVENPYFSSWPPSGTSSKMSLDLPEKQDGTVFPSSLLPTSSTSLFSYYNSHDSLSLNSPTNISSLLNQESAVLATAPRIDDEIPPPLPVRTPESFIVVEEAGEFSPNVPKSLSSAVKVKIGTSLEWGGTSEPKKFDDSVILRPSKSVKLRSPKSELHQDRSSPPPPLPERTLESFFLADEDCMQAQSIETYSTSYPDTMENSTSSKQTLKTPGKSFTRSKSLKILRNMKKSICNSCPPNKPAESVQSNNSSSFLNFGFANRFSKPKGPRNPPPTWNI

| IC50 [µM] | Structure (SMILES) |
| --- | --- |
| > 80 | CCc1nc(N)nc(N)c1-c1ccc(Cl)cc1 |
| > 80 | c1ccc(-c2nc(NCc3cccnc3)c3ccccc3n2)cc1 |
| > 80 | CCc1nc(N)nc(N)c1-c1ccc(NCCN)c([N+](=O)[O-])c1 |
| > 80 | CN(C)c1nc(N)nc(/C(C#N)=C/C2CC3C=CC2C3)n1 (configuration not stated) |
| > 80 | Cc1ccccc1Nc1cc(C)c2c(=O)cccc-2[nH]1 |
| > 80 | Cc1nccc(O)c1Cc1c(Cl)cccc1Cl |
| > 80 | Cc1cccc(-c2nc(NCCCN3CCOCC3)c3ccccc3n2)c1 |
| > 80 | Fc1ccccc1-c1nc(NCCCN2CCOCC2)c2ccccc2n1 [2-(2-fluorophenyl)-N-(3-morpholin-4-ylpropyl)quinazolin-4-amine] |
| > 80 | COc1ccc(/N=c2\[nH]c(=O)c3cc([N+](=O)[O-])ccc3s2)cc1 [2-(4-methoxyanilino)-6-nitro-1,3-benzothiazin-4-one] |
| > 80 | COc1ccccc1CNc1nc(NCc2cnc(C)cn2)c2sccc2n1 [2-N-[(2-methoxyphenyl)methyl]-4-N-[(5-methylpyrazin-2-yl)methyl]thieno[3,2-d]pyrimidine-2,4-diamine] |
| 22.9 | CCOc1cc(CN=Nc2nc(O)c(CC(=O)O)s2)ccc1OCc1ccc(Cl)cc1Cl [2-[2-[(N''E)-N''-[4-(2,4-dichlorobenzyl)oxy-3-ethoxy-benzylidene]hydrazino]-4-keto-2-thiazolin-5-yl]acetic acid] |
| > 80 | O=C(OCCNc1nc(-c2ccccc2)nc2ccccc12)c1ccncc1 [2-[(2-phenylquinazolin-4-yl)amino]ethyl pyridine-4-carboxylate] |
| > 80 | Cc1ccc(-c2nc(NC(=O)CSc3cc(C)c4ccccc4n3)ns2)cc1 [2-[(4-methyl-2-quinolyl)thio]-N-[5-(p-tolyl)-1,2,4-thiadiazol-3-yl]acetamide] |
| > 80 | N=c1c(C(=O)NCc2ccc3c(c2)OCO3)cc2c(=O)n3ccccc3nc2n1Cc1cccnc1 [2-azanylidene-N-(1,3-benzodioxol-5-ylmethyl)-5-oxidanylidene-1-(pyridin-3-ylmethyl)dipyrido[1,2-d:3',4'-f]pyrimidine-3-carboxamide] |
| > 80 | c1ccc(-c2cc(N3CCCCC3)c3ccccc3n2)cc1 [2-phenyl-4-piperidin-1-ylquinoline] |
| > 80 | CC(C)OCCCNc1nc(-c2ccccc2)nc2ccccc12 [2-phenyl-N-(3-propan-2-yloxypropyl)-4-quinazolinamine;hydrochloride] |
| > 80 | Cc1c(CCC(=O)O)c(=O)oc2c(C)c(OCc3ccccc3Cl)ccc12 [3-[7-[(2-chlorophenyl)methoxy]-4,8-dimethyl-2-oxochromen-3-yl]propanoic acid] |
| > 80 | CCN(c1ccccc1)S(=O)(=O)c1cc(C(=O)O)ccc1C [3-[ethyl(phenyl)sulfamoyl]-4-methyl-benzoic acid] |
| > 80 | O=C(OCCNc1nc(-c2ccccc2)nc2ccccc12)c1cccnc1 [3-pyridinecarboxylic acid 2-[(2-phenyl-4-quinazolinyl)amino]ethyl ester] |

| IC50 [µM] | Structure (SMILES) |
| --- | --- |
| > 80 | CNc1nc(NC)c2c[nH]nc2n1 [4-N,6-N-dimethyl-1H-pyrazolo[3,4-d]pyrimidine-4,6-diamine] |
| > 80 | COCCNc1nc(NCc2cccc(OC)c2OC)c2sccc2n1 [4-N-[(2,3-dimethoxyphenyl)methyl]-2-N-(2-methoxyethyl)thieno[3,2-d]pyrimidine-2,4-diamine] |
| > 80 | Cc1cc(N2CCC(C)CC2)[nH]c2cccc(=O)c1-2 [4-methyl-2-(4-methyl-1-piperidinyl)-1H-quinolin-5-one] |
| > 80 | CCc1nc(N)nc(N)c1-c1ccc(Cl)c(N=[N+]=[N-])c1 [5-(3-azido-4-chlorophenyl)-6-ethylpyrimidine-2,4-diamine;ethanesulfonic acid] |
| > 80 | Cc1nc(N)nc(N)c1-c1ccc([N+](=O)[O-])cc1 [6-methyl-5-(4-nitrophenyl)pyrimidine-2,4-diamine] |
| > 80 | Cc1cccc2nc(-c3ccccc3)nc(N[C@@H](CO)c3ccccc3)c12 [(2R)-2-[(5-methyl-2-phenylquinazolin-4-yl)amino]-2-phenylethanol] |
| > 80 | Nc1nc(N)c(Cc2ccc(Cl)cc2Cl)c(N)n1 [MLS000691890] |
| > 80 | c1ccc(-c2nc(NCCCn3ccnc3)c3ccccc3n2)cc1 [MLS001007021] |
| > 80 | O=c1cc(-c2cc3ccccc3o2)c2cc(O)ccc2o1 [MLS001167639] |
| > 80 | CCCCC(=O)Nc1ccc(C(=O)NNC(=O)c2ccc(C)c(Br)c2)cc1 [N-(4-{[2-(3-bromo-4-methylbenzoyl)hydrazino]carbonyl}phenyl)pentanamide] |
| > 80 | O=C(CCCOc1ccc(Cl)cc1Cl)NNC(=O)c1ccc(NC(=O)c2ccccc2)cc1 [N-[4-[[4-[2,4-bis(chloranyl)phenoxy]butanoylamino]carbamoyl]phenyl]benzamide] |
| > 80 | Fc1ccccc1-c1nc(NC2CCCC2)c2ccccc2n1 [N-cyclopentyl-2-(2-fluorophenyl)quinazolin-4-amine] |
| > 80 | Cc1ccc(-c2nc(NCc3cccnc3)c3ccccc3n2)cc1 [Pyridin-3-ylmethyl-(2-p-tolyl-quinazolin-4-yl)-amine] |
| > 80 | Clc1cccc(Cl)c1Cn1cnc(NCc2ccco2)c2ncnc1-2 [SMR000036870] |
| > 80 | c1ccc(-c2nc(NCCCN3CCOCC3)c3ccccc3n2)cc1 [SMR000071192] |
| > 80 | Cc1ccc(-c2nc(NCCN3CCOCC3)c3ccccc3n2)cc1 [SMR000108805] |
| > 80 | CC(C)Oc1ccc(-c2nc(NCC3CCCO3)c3ccccc3n2)cc1 (configuration not stated) [SMR000433802] |
| > 80 | c1ccc(-c2cc(NCCN3CCCCC3)c3ccccc3n2)cc1 [SMR000567889] |
